Data published in patent US12109220B2, “Compositions for use in the reduction of nociception in children” (SOCIETE DES PRODUITS NESTLE S.A., priority 2017, dated 2024).
pEC50: −log10 of the molar value. Entries after “also recorded” stand apart in the source; their conditions may differ.

Biological target: GPR35 (Homo sapiens, UniProt Q9HC97)
Experiment: PathHunter β-Arrestin assay of GPR35 activation (DiscoverX)
Type: cell-based
Conditions: for activation of GPR35 (in words): single HMOs, highest concentration tested 10 mM; for pEC50: cell based β-arrestin recruitment, 3x dilutions from 10 mM, duplicate
Method: Six human milk oligosaccharides (LNnT, LNT, 2-FL, diFL, 6′ SL and 3-SL) were sreened for their ability to activate the GPR35 receptor in an in vitro assay.
The GPR35 cell line was expanded from frozen stocks and cultured according to standard procedures. Cells were seeded in a total volume of 20 μL into white walled, 384-well microplates and incubated at 37° C. for the appropriate time prior to testing. All testing was done in duplicate.
HMO samples were shipped to DiscoverX as concentrated stocks in Phosphate Buffered saline. On the test day, a 5× compound working intermediate was prepared in PBS. Five μL of 5× sample was added to cells and incubated at room temperature for 3 to 5 hours.
Assay signal was generated through a single addition of 12.5 μL (50% v/v) of PathHunter Detection reagent cocktail, followed by one-hour incubation at room temperature. Microplates were read following signal generation with a PerkinElmer Envision™ instrument for chemiluminescent signal detection.
Zaprinast (which is known to be an activator of GPR35) was used as positive control.
Percentage activity was calculated using the following formula: % Activity=100%×(mean RLU of test sample−mean RLU of vehicle control)/(mean MAX control ligand−mean RLU of vehicle control).
Dose-responses were generated by iterative 3× dilutions of the highest concentration tested (10 mM).
The samples were diluted in 1×PBS (pH ˜7) at 5× concentrations and sent to DiscoverX. The GPR35 activation assay was performed as described in Example 2.

GPR35, sequence (Q9HC97 whole entry): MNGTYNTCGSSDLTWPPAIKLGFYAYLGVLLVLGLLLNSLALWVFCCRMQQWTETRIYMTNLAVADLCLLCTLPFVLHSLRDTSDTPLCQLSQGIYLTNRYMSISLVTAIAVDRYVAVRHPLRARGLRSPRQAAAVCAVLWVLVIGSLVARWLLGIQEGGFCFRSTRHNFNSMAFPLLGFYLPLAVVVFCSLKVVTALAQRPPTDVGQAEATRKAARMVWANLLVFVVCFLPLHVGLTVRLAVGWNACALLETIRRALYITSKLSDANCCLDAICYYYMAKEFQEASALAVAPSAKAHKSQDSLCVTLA
GPR35, sequence (P32121 whole entry partner): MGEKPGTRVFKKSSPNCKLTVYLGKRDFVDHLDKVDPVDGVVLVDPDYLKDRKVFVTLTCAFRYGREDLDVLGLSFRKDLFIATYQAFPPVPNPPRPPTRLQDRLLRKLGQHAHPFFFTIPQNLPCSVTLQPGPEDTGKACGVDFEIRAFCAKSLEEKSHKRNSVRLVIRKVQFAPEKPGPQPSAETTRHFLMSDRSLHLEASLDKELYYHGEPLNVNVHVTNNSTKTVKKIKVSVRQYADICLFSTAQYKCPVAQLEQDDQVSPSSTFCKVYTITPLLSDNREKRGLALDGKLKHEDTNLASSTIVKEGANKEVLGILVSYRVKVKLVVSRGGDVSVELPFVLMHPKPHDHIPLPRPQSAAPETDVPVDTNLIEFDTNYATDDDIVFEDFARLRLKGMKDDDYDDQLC

C[C@@H]1O[C@@H](O[C@H]2[C@H](O[C@H]3[C@H](O[C@@H]4O[C@@H](C)[C@@H](O)[C@@H](O)[C@@H]4O)[C@@H](O)C(O)O[C@@H]3CO)O[C@H](CO)[C@H](O)[C@@H]2O)[C@@H](O)[C@H](O)[C@@H]1O (stereo partly shown) [diFL, difucosyllactose]
activation of GPR35 (in words): No activation | activation of GPR35 (in words) (listed as difucosyllactose): do not activate

CC(=O)N[C@H]1[C@H]([C@H](O)[C@H](O)CO)O[C@@](OC[C@H]2O[C@@H](O[C@H]3[C@H](O)[C@@H](O)[C@H](O)O[C@@H]3CO)[C@H](O)[C@@H](O)[C@H]2O)(C(=O)O)C[C@@H]1O [6′SL, 6′-sialyllactose]
pEC50: 2.19

CC(=O)N[C@H]1[C@H]([C@H](O)[C@H](O)CO)O[C@@](O[C@H]2[C@@H](O)[C@@H](CO)O[C@@H](O[C@H]3[C@H](O)[C@@H](O)C(O)O[C@@H]3CO)[C@@H]2O)(C(=O)O)C[C@@H]1O (stereo partly shown) [3SL, 3′-sialyllactose]
activation of GPR35 (in words): No activation | activation of GPR35 (in words) (listed as 3-SL): do not activate

CC(=O)N[C@H]1[C@H](O[C@H]2[C@@H](O)[C@@H](CO)O[C@@H](O[C@H]3[C@H](O)[C@@H](O)C(O)O[C@@H]3CO)[C@@H]2O)O[C@H](CO)[C@@H](O[C@@H]2O[C@H](CO)[C@H](O)[C@H](O)[C@H]2O)[C@@H]1O (mixture of isomers) [LNnT, lacto-N-neotetraose]
activation of GPR35 (in words): No activation; also recorded: do not activate

CC(=O)N[C@H]1[C@H](O[C@H]2[C@@H](O)[C@@H](CO)O[C@@H](O[C@H]3[C@H](O)[C@@H](O)C(O)O[C@@H]3CO)[C@@H]2O)O[C@H](CO)[C@@H](O)[C@@H]1O[C@@H]1O[C@H](CO)[C@H](O)[C@H](O)[C@H]1O (stereo partly shown) [LNT, lacto-N-tetraose]
pEC50: 2.35
